Assay results published in ChEMBL document CHEMBL5727930, “Indazole containing macrocycles and therapeutic uses thereof” (2020).

Each compound was assayed against Dual specificity tyrosine-phosphorylation-regulated kinase 1A (Homo sapiens, UniProt Q13627) (assay: Kinase Assay: The DYRK1A kinase assay was run using the Ser/Thr 18 peptide Z-lyte assay kit according to manufacturer's instructions (Life Technologies—a Division of Thermo-Fisher). This is a non-radioactive assay using fluorescence resonance energy transfer (FRET) between coumarin and fluorescein to detect kinase activity which is represented as a ratio of coumarin emission/fluorescein emission.Briefly, recombinant DYRK1A kinase, ATP and Ser/Thr peptide 18 were prepared in 1× Kinase buffer to final concentrations of 0.19 μg/mL, 30 μM, and 4 μM respectively. The mixture was allowed to incubate with the representative compounds for one hour at room temperature. All reactions were performed in duplicate. Unphosphorylated (“0% Control”) and phosphorylated (“100% control”) forms of Ser/Thr 18 served as control reactions. Additionally, an 11-point dose-response curve of Staurosporine (1 uM top) was run to serve as a positive compound control.).

SMILES	EC50 [nM]
O=C1CCc2cccc(c2)-c2cncc(c2)NC(=O)c2n[nH]c3ccc(cc23)-c2cncc(c2)CN1	9
O=C1COc2cccc(c2)-c2cncc3[nH]c(nc23)-c2n[nH]c3ccc(cc23)-c2cncc(c2)N1	5
c1cc2cc(c1)-c1cncc3[nH]c(nc13)-c1n[nH]c3ccc(cc13)-c1cncc(c1)CNC2	3
O=C1CCc2cccc(c2)-c2cncc3[nH]c(nc23)-c2n[nH]c3ccc(cc23)-c2cncc(c2)N1	10
CN1CCCCN(C)c2nccc3[nH]c(nc23)-c2n[nH]c3ccc(cc23)-c2cncc(c2)C1	2
